Literature values in patent US20070160648A1, “Methods for treating otic disorders” (pSivida Inc., priority 2002, published 2007).

Structure (SMILES): [H]/N=C(/N)N[C@H]1[C@H](O)[C@@H](O)[C@H](O[C@@H]2O[C@@H](C)[C@](O)(C=O)[C@H]2O[C@@H]2O[C@@H](CO)[C@H](O)[C@@H](O)[C@@H]2NC)[C@@H](N/C(N)=N\[H])[C@@H]1O [streptomycin]
- patients displaying some vestibular impairment (one gram of streptomycin daily for 60 to 120 days): 25%
- incidence of vestibular impairment (two grams per day): 75%
